Reference: patent US9775859B2, “Methods and compositions for preventing and treating a disease related to glycan dysregulation” (Sinai Health System, priority 2005, dated 2017)
“And” between values parts separate entries of the source, which are not always exact repeats. Equal values may be shown once. “Also recorded” adds a separate entry of the source.

Legend:
CHO cells [1] = experiment: L-PHA and ConA lectin staining of CHO cells by FACS; type: cell-based, Chinese Hamster; settings: CHO cells treated with inhibitor
From the text: (§1) For comparison of N-glycan profiles of mice and human MS patients, CHO cells and CHO cells deficient at 5 different steps in the N-glycan pathway (Glucosidase I, Mannosidase I, MGAT1, Mannosidase II and MGAT5, FIG. 7A) were used to define relative L-PHA and Concanavillin A (ConA) lectin staining levels by FACS along with MALDI TOF N-glycan processing profiles. […] Indeed, a human infant with severe human glucosidase I deficiency accumulates Glc3Man (885 A ion in FIG. 16A, 21C) in the urine, a 4 hexose oligomer which derives from the Glucosidase I substrate Glc3Man9GlcNAc2 via endo-mannosidase activity (70). […] Such activity would produce Man8GlcNAc2, Man7GlcNAc2 and Man6GlcNAc2 structures and allow processing by Mannosidase I/II. Indeed, N-glycans of these 3 compositions accumulate in Glucosidase I/II inhibited cells when Mannosidase I activity is blocked with DMN (69). The larger structures Glc3Man9GlcNAc2 (mass 3008) and Glc3Man7GlcNAc2 (mass 2600) were also observed (67), however they were at lower relative intensities compared to the A ion group (FIG. 21C). […] Mixing CHO and Lec1 cells in various proportions confirmed that relative differences in expression of N-glycan structures can be determined using MALDI TOF (FIG. 21G).

[2] = system: PL/J and C57/B6 T cell cultures; experiment: CFSE proliferation of mouse CD3+ T cells stimulated with anti-CD3; type: cell-based; settings: wild type PL/J and C57/B6 T cells
[3] = system: PL/J and C57/B6 T cell cultures; experiment: L-PHA staining of mouse CD3+ T cells stimulated with anti-CD3, FACS; type: cell-based; settings: listed as SW
Experimental: Mice used for L-PHA staining and quantitative RT-PCR were sex and age matched. […] 129/Sv mice were from an original Mgat5 gene targeted population (28). All other mice (SJL, NOD, Balb/c and B10.S) were obtained from Jackson Laboratories. […] Mouse and Jurkat cells were stained with L-PHA and LEA by first blocking with PBA (2% bovine serum albumin/0.01% azide/PBS) for 10 min at 4° C. and then incubated with 4 μg/ml of L-PHA-FITC (Vector Laboratories Inc.) or 20 μg/ml of LEA-FITC (Sigma) in PBA for 40 min at 4° C. and analyzed by a BD FACSCalihur (BD Pharmingen, San Diego, Calif.). The level of lectin binding was normalized by untreated control and calculated as a percentage (Sample intensity/control intensity-1) %.
Mice used for L-PHA staining and quantitative RT-PCR were sex and age matched. […] 129/Sv mice were from the original Mgat5 gene targeted population (28). All other mice (SJL, NOD, Balb/c and B10.S) were obtained from Jackson Laboratories. Mouse cells were stained with anti-CD4 (RM4-5), anti-CD8 (53-6.7), anti-CD45R (RA3-6B2) from eBioscience, and L-PHA (4 μg/ml) and LEA (20 μg/ml) from Sigma. […] The indicated monosaccharides and/or metabolites were added daily except glucose which was added only at time zero. […] The plateau or highest non-toxic dose is shown.

CHO cells [4] = experiment: MALDI-TOF mass spectroscopy N-glycan profile of CHO cells; type: cell-based, Chinese Hamster; settings: CHO cells treated with inhibitor
Experimental: This was done as a service at the Glycotechnology core facility, a resource of the Glycobiology Research and Training Center (GRTC) at the University of California, San Diego. CD3+ murine T cells (6×10^6), resting PBMCs from human controls and MS subjects (6×10^6) and CHO cells (10×10^6) were lysed with 1% SDS in 100 mM Tris pH 7.4, dialyzed to remove SDS, digested with trypsin to generate glycopeptides and treated with PNGaseF to release the N-glycans. To focus on early processing, N-glycans were desialylated by mild acid digestion prior to permethylation and MALDI-TOF mass spectroscopy. Monoisotopic peaks in the spectra were identified using GlycanMass and GlycoMod online software, with specific targeting of the N-glycan intermediates occurring during Golgi processing.
as §1

MGAT2 = molecular target: T1, MGAT2 (Homo sapiens, UniProt Q10469); settings: read-out: Km for UDP-GlcNAc; cited from earlier work
T1 sequence (Q10469 1-447): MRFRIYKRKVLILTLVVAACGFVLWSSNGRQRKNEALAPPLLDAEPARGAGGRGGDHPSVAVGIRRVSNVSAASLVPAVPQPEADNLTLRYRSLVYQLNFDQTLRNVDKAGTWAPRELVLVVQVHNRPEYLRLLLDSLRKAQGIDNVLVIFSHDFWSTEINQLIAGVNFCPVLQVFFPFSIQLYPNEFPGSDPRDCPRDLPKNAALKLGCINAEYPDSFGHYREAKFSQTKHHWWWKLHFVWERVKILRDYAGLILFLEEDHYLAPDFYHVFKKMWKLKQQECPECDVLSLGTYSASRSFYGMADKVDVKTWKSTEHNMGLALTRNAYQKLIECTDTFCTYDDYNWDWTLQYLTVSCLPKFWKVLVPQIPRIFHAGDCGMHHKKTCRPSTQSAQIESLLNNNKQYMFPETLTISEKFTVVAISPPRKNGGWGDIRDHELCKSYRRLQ

[5] = system: UDP-GlcNAc/UMP transporter; settings: UDP-GlcNAc/UMP transport, model parameter; cited from earlier work
MGAT5 enzyme = molecular target: T2, MGAT5 enzyme (Homo sapiens, UniProt Q09328); settings: read-out: Km for UDP-GlcNAc; cited from earlier work
T2 sequence (Q09328 1-741): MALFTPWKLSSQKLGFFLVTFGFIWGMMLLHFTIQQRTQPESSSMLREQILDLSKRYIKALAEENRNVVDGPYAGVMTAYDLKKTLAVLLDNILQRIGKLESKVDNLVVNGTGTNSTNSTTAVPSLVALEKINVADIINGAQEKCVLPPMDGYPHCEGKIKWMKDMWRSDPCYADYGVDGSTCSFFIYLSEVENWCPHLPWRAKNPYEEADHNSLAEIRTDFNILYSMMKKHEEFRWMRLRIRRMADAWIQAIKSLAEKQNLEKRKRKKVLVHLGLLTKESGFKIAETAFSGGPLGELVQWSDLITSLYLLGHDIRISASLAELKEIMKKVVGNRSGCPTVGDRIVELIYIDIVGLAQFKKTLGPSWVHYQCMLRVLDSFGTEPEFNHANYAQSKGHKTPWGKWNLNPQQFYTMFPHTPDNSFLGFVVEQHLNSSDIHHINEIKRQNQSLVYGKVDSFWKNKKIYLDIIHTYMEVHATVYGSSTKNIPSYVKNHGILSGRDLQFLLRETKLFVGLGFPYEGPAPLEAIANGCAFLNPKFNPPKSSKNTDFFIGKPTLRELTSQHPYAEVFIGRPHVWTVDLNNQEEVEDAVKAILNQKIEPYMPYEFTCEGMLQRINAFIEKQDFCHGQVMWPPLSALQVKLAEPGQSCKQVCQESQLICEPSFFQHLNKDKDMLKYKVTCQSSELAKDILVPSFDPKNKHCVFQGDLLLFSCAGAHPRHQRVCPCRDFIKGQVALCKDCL

MGAT4 = settings: read-out: Km for UDP-GlcNAc; cited from earlier work
MGAT1 = molecular target: T3, MGAT1 (Homo sapiens, UniProt P26572); settings: read-out: Km for UDP-GlcNAc; cited from earlier work
T3 sequence (P26572 1-445): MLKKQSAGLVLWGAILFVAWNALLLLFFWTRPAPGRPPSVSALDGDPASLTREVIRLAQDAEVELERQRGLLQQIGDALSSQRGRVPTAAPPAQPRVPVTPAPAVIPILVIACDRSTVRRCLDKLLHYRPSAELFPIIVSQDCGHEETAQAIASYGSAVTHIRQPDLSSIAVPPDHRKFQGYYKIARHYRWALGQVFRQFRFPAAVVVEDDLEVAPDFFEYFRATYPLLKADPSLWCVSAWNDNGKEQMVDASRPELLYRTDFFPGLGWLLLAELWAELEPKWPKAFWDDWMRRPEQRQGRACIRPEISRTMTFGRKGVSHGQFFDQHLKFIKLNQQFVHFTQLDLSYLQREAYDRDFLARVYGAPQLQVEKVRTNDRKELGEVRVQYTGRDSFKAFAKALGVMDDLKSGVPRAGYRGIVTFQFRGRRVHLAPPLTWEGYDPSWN

SMILES	high-mannose structures as seen by ConA staining (CHO cells [1])	β1,6GlcNAc-branched N-glycan expression by L-PHA staining (CHO cells [1])	reversal of supplement effect on proliferation by blocking Mgat5 N-glycan expression [2]	up-regulation of β1,6 GlcNAc branched N-glycans following stimulation ([3]; anti-CD3, minimal concentrations)	resting levels of β1,6 GlcNAc branched N-glycans ([3]; minimal concentrations)	MALDI TOF profile of N-glycans (accumulated structures) (CHO cells [4])	β1,6GlcNAc-branched tetra-antennary N-glycans (mass 2969, structure G) (CHO cells [4])	Km (MGAT2) [mM]	Km [5] [mM]	Km (MGAT5 enzyme)	Km (MGAT4) [mM]	Km (MGAT1) [mM]
O[C@H]1[C@H]2[C@H](O)CCCN2C[C@H]1O [swainsonine]	increased	dramatic reductions	reversed	significantly attenuated	without affecting; also recorded: do not affect	accumulation of hybrid structures	absent					
CC(=O)N[C@H]1[C@@H](OP(=O)(O)OP(=O)(O)OC[C@H]2O[C@@H](n3ccc(=O)[nH]c3=O)[C@H](O)[C@@H]2O)O[C@H](CO)[C@@H](O)[C@@H]1O [UDP-GlcNAc, UDP-N-acetylglucosamine]								0.9	0.00713	~10 mM and ~11 mM and 11 mM	~5	0.04
